From patent US8466089B2, “Pyrazole compounds, process for their production and herbicides containing them” (Ishihara Sangyo Kaisha, Ltd., priority 2008, dated 2013) come the findings set out here.

Format in all cases: in vivo
Experiment [1] relates to barnyardgrass (Echinochloa crus-galli L.). As to the kind of experiment: Test Example 1, foliar treatment in upland pots. To be noted: 20th to 22nd day after application, visual, read-out: Growth inhibition rate (%) Barnyardgrass.
The test system of experiment [2] is corn (Zea mays L.). As to the kind of experiment: Test Example 1, foliar treatment in upland pots. To be noted: 20th to 22nd day after application, visual, read-out: Growth inhibition rate (%) Corn. An outline of the steps: (§1)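 Plants grown from seed in upland soil pots were sprayed over the foliage at green foxtail 1.5–3.0, rice 1.2–2.5, corn 2.0–3.3 leaf stage, soybean primary leaf to 0.3 leaf stage. Wettable powder or EC formulations were diluted in water at 500 L/ha with 0.1 vol% spreader. Growth inhibition (0–100%) was scored visually 20–22 days later.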

The subject of experiment [3] is crabgrass (Digitaria sanguinalis L.). As to the kind of experiment: Test Example 1, foliar treatment in upland pots. To be noted: 20th to 22nd day after application, visual, read-out: Growth inhibition rate (%) Crabgrass.
In experiment [4] the test system is green foxtail (Setaria viridis L.). As to the kind of experiment: Test Example 1, foliar treatment in upland pots. The following applies: 20th to 22nd day after application, visual, read-out: Growth inhibition rate (%) Green foxtail. In a few lines:
as §1

The test system of experiment [5] is redroot pigweed (Amaranthus retroflexus L.). Put plainly: Test Example 1, foliar treatment in upland pots. The following applies: 20th to 22nd day after application, visual, read-out: Growth inhibition rate (%) Redroot pigweed.
The test system of experiment [6] is rice (Oryza sativa L.). As to the kind of experiment: Test Example 1, foliar treatment in upland pots. To be noted: 20th to 22nd day after application, visual, read-out: Growth inhibition rate (%) Rice. An outline of the steps: as §1
Experiment [7] concerns velvetleaf (Abutilon theophrasti MEDIC.). Put plainly: Test Example 1, foliar treatment in upland pots. To be noted: 20th to 22nd day after application, visual, read-out: Growth inhibition rate (%) Velvetleaf.
Experiment [8] has as its system barnyardgrass (Echinochloa crus-galli L.). As to the kind of experiment: Test Example 2, soil application on the day after sowing. The following applies: 21st to 22nd day after application, visual, read-out: Growth inhibition rate (%) Barnyardgrass. In a few lines: (§2)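 Upland soil in 1/170,000 ha pots was sown, and the day after sowing, compound formulated as wettable powder or emulsifiable concentrate was diluted in water equivalent to 500 L/ha and sprayed onto the soil. Growth inhibition was scored visually at 21–22 days, 0% (untreated) to 100% (complete kill).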

Experiment [9] concerns corn (Zea mays L.). Described as above. To be noted: 21st to 22nd day after application, visual, read-out: Growth inhibition rate (%) Corn. In a few lines: as §2
Experiment [10] has as its system crabgrass (Digitaria sanquinalis L.). The description is as above. To be noted: 21st to 22nd day after application, visual, read-out: Growth inhibition rate (%) Crabgrass. An outline of the steps: as §2
Experiment [11] concerns green foxtail (Setaria viridis L.). Described as above. To be noted: 21st to 22nd day after application, visual, read-out: Growth inhibition rate (%) Green foxtail. In a few lines:
as §2

Experiment [12] deals with prickly sida (Sida spinosa L.). Described as above. To be noted: 21st to 22nd day after application, visual, read-out: Growth inhibition rate (%) Prickly sida. In a few lines: as §2
Experiment [13] deals with redroot pigweed (Amaranthus retroflexus L.). The experiment is described as above. The following applies: 21st to 22nd day after application, visual, read-out: Growth inhibition rate (%) Redroot pigweed. An outline of the steps:
as §2

The test system of experiment [14] is rice (Oryza sativa L.). The description is as above. The following applies: 21st to 22nd day after application, visual, read-out: Growth inhibition rate (%) Rice. In a few lines: as §2
The test system of experiment [15] is soybean (Glycine max Merr.). Described as above. To be noted: 21st to 22nd day after application, visual, read-out: Growth inhibition rate (%) Soybean. An outline of the steps:
as §2

The test system of experiment [16] is velvetleaf (Abutilon theophrasti MEDIC.). The description is as above. The following applies: 21st to 22nd day after application, visual, read-out: Growth inhibition rate (%) Velvetleaf. In a few lines: as §2
The subject of a further experiment is wheat (Triticum spp.). The description is as above. The following applies: 21st to 22nd day after application, visual, read-out: Growth inhibition rate (%) Wheat. In a few lines:
as §2

In the case of `COC(=O)OC(C)Oc1c(C(=O)c2ccc(S(C)(=O)=O)c(C(=O)OC)c2C)cnn1C` (stereo not drawn) [Compound No. 1-2, Methyl 3-(5-(1-(methoxycarbonyloxy)ethoxy)-1-methyl-1H-pyrazole-4-carbonyl)-2-methyl-6-(methylsulfonyl)benzoate], the inhibition at 7 g/ha in [1] stood at 100%; in the experiment with corn (Zea mays L.) [2], 0%; in experiment [3] it was 90%; in [4] it was 100%; in experiment [5], 95%; in the experiment with rice (Oryza sativa L.) [6] it was 70%. Further, the inhibition at 7 g/ha in [7] was found to be 80%. The inhibition at 250 g/ha in experiment [8] was 100%; with corn (Zea mays L.) [9] it was 0%; in experiment [10], 100%; in experiment [11] it was 100%; in experiment [12] it was 98%; in [13], 100%. Also, the inhibition at 250 g/ha was determined as 100% in the experiment on rice (Oryza sativa L.) [14], 70% in experiment [15], 100% in experiment [16] and 20% in the experiment with wheat (Triticum spp.).

Regarding `CCn1nc(C)c(C(=O)c2ccc(S(C)(=O)=O)c(OCCOC)c2C)c1O` [Compound No. 6-1, (1-Ethyl-5-hydroxy-3-methyl-1H-pyrazol-4-yl)(3-(2-methoxyethoxy)-2-methyl-4-(methylsulfonyl)phenyl)ketone], the inhibition at 7 g/ha in [1] was 10%; with corn (Zea mays L.) [2] it was 0%; in [3] it was 50%; in [4], 60%; in experiment [5], 60%; in the experiment with rice (Oryza sativa L.) [6], 20%. Further, the inhibition at 7 g/ha in [7] came out at 50%. Moreover, the inhibition at 250 g/ha in experiment [8] was 100%; with corn (Zea mays L.) [9], 0%; in [10], 100%; in [11], 98%; in [12], 80%; in experiment [13] it was 100%. Further, the inhibition at 250 g/ha worked out at 100% in the experiment on rice (Oryza sativa L.) [14], 60% in experiment [15], 80% in [16] and 20% with wheat (Triticum spp.).

Regarding `COCCOc1c(S(C)(=O)=O)ccc(C(=O)c2c(C)nn(C)c2O)c1C` [Compound No. 5-2, (5-Hydroxy-1,3-dimethyl-1H-pyrazol-4-yl)(3-(2-methoxyethoxy)-2-methyl-4-(methylsulfonyl)phenyl)ketone], the inhibition at 7 g/ha in experiment [1] was 90%; with corn (Zea mays L.) [2] it was 0%; in experiment [3], 90%; in experiment [4], 100%; in [5], 90%; in the experiment with rice (Oryza sativa L.) [6] it was 50%. In addition, in experiment [7], the inhibition at 7 g/ha was 70%. Besides, the inhibition at 250 g/ha in experiment [8] was determined as 10%; in the experiment on corn (Zea mays L.) [9], 0%; in [10], 100%; in experiment [11], 60%; in experiment [12] it was 0%; in experiment [13] it was 90%. In addition, the inhibition at 250 g/ha with rice (Oryza sativa L.) [14] worked out at 10%; in experiment [15], 20%; in experiment [16] it was 70%; in the experiment with wheat (Triticum spp.), 0%.

One may read the inhibition as the percentage by which the read-out fell short of the control.
